In article PMC7221519, “Synthesis and Evaluation of [^18F]FEtLos and [^18F]AMBF3Los as Novel ^18F-Labelled Losartan Derivatives for Molecular Imaging of Angiotensin II Type 1 Receptors” (Molecules, 2020):
“And” between values parts separate entries of the source, which are not always exact repeats. Equal entries are not always repeated. Where two headings read alike, the source gives them in different places.

What was measured:
[1] = design: method as in PMID 27199365; conditions: in vivo, 60 min; cited from earlier work
rat kidney AT1R = molecular target: rat kidney AT1R; design: method as in PMID 27199365; conditions: read-out: dissociation constant, KD; cited from earlier work
[2] = design: method as in earlier work; conditions: cited from earlier work
human AT1R = molecular target: T1, human AT1R (Homo sapiens, UniProt P30556); test: Competition binding assay in membranes containing human AT1R, [125I]-(Sar1,Ile8)-Angiotensin II as radioligand; conditions: human AT1R membranes from CHO-K1 cells, displacement of [125I]-(Sar1,Ile8)-Angiotensin II, n = 3
T1 construct: purchased Perkin Elmer (Waltham, MA, USA); host or cells: CHO-K1 cells (recombinant membrane preparation)
T1 sequence (P30556 1-359): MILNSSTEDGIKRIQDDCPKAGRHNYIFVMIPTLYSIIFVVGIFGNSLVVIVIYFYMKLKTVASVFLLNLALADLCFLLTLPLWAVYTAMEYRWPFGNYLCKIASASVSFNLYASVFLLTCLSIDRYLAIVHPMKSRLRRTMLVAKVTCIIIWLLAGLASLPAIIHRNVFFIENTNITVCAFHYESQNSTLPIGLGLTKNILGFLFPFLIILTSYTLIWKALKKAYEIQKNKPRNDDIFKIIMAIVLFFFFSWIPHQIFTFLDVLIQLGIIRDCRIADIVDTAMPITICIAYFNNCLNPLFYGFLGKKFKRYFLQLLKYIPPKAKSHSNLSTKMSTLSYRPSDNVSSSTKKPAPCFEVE
Method: The assays were performed using membranes expressing the human angiotensin II type 1 receptor from CHO-K1 cells, purchased from Perkin Elmer (Waltham, MA, USA). […] The hot ligand [^125I]-(Sar1,Ile8)-Angiotensin II (81.4 TBq/mmol) was also purchased from Perkin Elmer (USA). The Multiscreen MSFCN6B50 96-well plates were used for this assay. The procedure was based on the recommended assay conditions from Perkin Elmer (Waltham, MA, USA) and procedures previously described for other AT1R ligands [22, 23]. Briefly, the 96-well plate was preincubated for 1–2 h at 4 °C with 200 μL of 0.5% BSA (Bovine Serum Albumin) followed by washing (3 times) with an assay buffer. Next, 150 µL of the membranes, diluted (1:150) in the buffer assay (50 mM Tris-HCl pH 7.4, 5 mM MgCl2) to a final concentration of 0.6 μg/well, were added to the wells followed by the addition of cold (25 µL) and hot ligand (25 µL). The plate was incubated for 60 min at 27 °C under stirring and at the end of the experiment all wells were washed (9 times) with ice-cold wash buffer (50 mM Tris-HCl pH 7.4) using vacuum. Afterwards, membranes were punched out and counted in a Perkin Elmer (Waltham, MA, USA) Wizard2 2480 automatic gamma counter. The Ki values were calculated by a non-linear curve fitting using GraphPad Prism 7.01 Software (San Diego, CA, USA). The experiment was done in triplicate.

renal AT1R [3] = test: Ex vivo µPET/CT imaging of mouse kidneys 10 min p.i.; type: in vivo, Balb/c Nude mice; conditions: losartan 70 mg/kg
Method: The renal AT1R binding specificity of [^18F]FEtLos was also evaluated by an ex vivo µPET/CT imaging of Balb/c Nude mice kidneys 10 min post injection (p.i.) of the tracer. […] These positive results of the ex vivo renal AT1R binding of [^18F]FEtLos might be possible due to the high AT1R density in the kidneys, that allows visualizing specific uptake in spite of the low AT1R binding affinity of [^18F]FEtLos.
Figure S12. Calibration curve for determining the molar activity of [18F]FEtLos. The curve represent the correlation between the area under the curve (AUC), recorded from the analytical HPLC profile at 254 nm, and the amount (nmol) of the product injected onto analytical HPLC.
(§1) Supplemental material and methods
1. Binding assays in cells with [18F]FEtLos […]
(§2) At the end of the incubation period, the supernatant was aspirated and cells were washed six times with ice-cold PBS, and further removed with cell scraper and transferred to a gamma counter tube. The activity in the cells was counted in a Cobra II gamma counter (Packard). […]
The AT1R binding specificity of [18F]FEtLos was evaluated by ex vivo µPET/CT imaging of healthy Balb/c Nude mice kidneys after ten minutes of intravenous injection of [18F]FEtLos with […]
(AT1R blocked). […] The ex vivo µPET/CT imaging was recorded using a FOV (field of view) of 60 mm and 15 min for PET scan, and 35 kV and 400 µA for CT scan.

[4] = Log D7.4 measurement (octanol/PBS, gamma counting); type: physicochemical; conditions: pH 7.4, n = 3
Method: The log D7.4 values were determined according to the literature. Aliquots (2 μL) of [^18F]FEtLos and [^18F]AMBF3Los were added to polypropylene tubes containing 3 mL of octanol and 3 mL of PBS (phosphate-buffered saline). The samples were vortexed for 20 s (2 times) and centrifuged at 600× g for 15 min. Aliquots (0.1 mL) of each layer were counted in a gamma counter to determine the log D7.4 as log (counts in octanol layer/counts in PBS layer).

CHO-AT1R cells = test: Cell binding (uptake) assay in CHO-AT1R and CHO cells; type: cell-based, Chinese hamster; conditions: 60 min at 4 °C; for AT1R-specific binding to CHO-AT1R cells (blocking with losartan potassium): losartan potassium 100 µM/well
Method: The cell binding assays were performed based on previous reports with modifications. […] To saturate the AT1R, the cells of the blocking group were treated with losartan 30 min before adding the radiolabelled compound. At the end of the incubation period, the supernatant was aspirated and cells were washed six times with ice-cold PBS, and further removed with cell scraper and transferred to a gamma counter tube. The cellular activity was counted in a Cobra II gamma counter (Packard). […]
as §1
1. Binding assays in cells with [18F]FEtLos
CHO-AT1R and CHO cells ([…]) were plated in a 6-well plate overnight and then incubated for one hour at 4 °C with 10 µCi (370 kBq) of [18F]FEtLos per well, in presence or absence […]
as §2

renal AT1R [5] = test: Autoradiography of mouse kidneys after 60-min dynamic µPET scan; type: in vivo, NOD.Cg-Prkdc^scidIl2rg^tm1Wjl/SzJ mice; conditions: autoradiography after 60-min dynamic µPET scan, co-injection of losartan potassium
Source text: Kidneys harvested from healthy NSG mice (after the biodistribution studies), were rinsed in PBS and frozen in isopentane/dry-ice bath. Ten μm-thick slides of the kidneys were obtained using a cryostat (Leica, Wetzlar, Germany), and thaw-mounted onto Superfrost Plus microscope slides (Fischerbrand from Thermo Fisher Scientific, Toronto, ON, Canada), following general procedures of the lab. Afterwards, kidney slides were exposed to a phosphor screen overnight and imaged on a Typhoon FLA 9500 scanner (GE Healthcare, Chicago, IL, USA).

renal AT1R [6] = test: Dynamic µPET scan of healthy NSG mice; type: in vivo, NOD.Cg-Prkdc^scidIl2rg^tm1Wjl/SzJ mice; conditions: early time points (10, 15 and 20 min), losartan 18 mg/kg
Method: (§3) The in vivo AT1R binding specificity of [^18F]AMBF3Los was evaluated in healthy mice by a dynamic PET scan. Healthy NSG mice were injected in the tail vein with 6 ± 1 MBq (170 ± 38 μCi) of [^18F]AMBF3Los and a sixty-minute dynamic PET scans was carried out on a μPET/CT scanner (Inveon, Siemens) following procedures reported previously. Alternatively, [^18F]AMBF3Los was concomitantly injected with the AT1R blocker losartan (18 mg/kg) before the dynamic acquisition. Before and during the acquisition, mice were sedated with a continuous flow of isoflurane anesthesia (2% isoflurane in oxygen). The µPET/CT images were analyzed with PMOD v3.3 software (PMOD Technologies, Zürich, Switzerland). An elliptical volume-of-interest that enclosed the entire kidney was positioned manually on the PET images for the determination of the kidney volume. Then, 3-dimensional isocontours were drawn automatically. For each VOI, the percentage of the injected dose in the region of interest, divided by the injected dose per animal weight (% ID/g) could be calculated directly using the output parameters from the μPET.

[7] = Biodistribution at 60 min p.i. in healthy NSG mice; type: in vivo, NOD.Cg-Prkdc^scidIl2rg^tm1Wjl/SzJ mice; conditions: n = 3
Method: Experiments involving animals were approved by the Animal Ethics Committee of the University of British Columbia (Protocol number: A16-0128). Immunodeficient NOD.Cg-Prkdc^scidII2rg^tm1Wjl/SzJ (NSG) mice were obtained from an in-house breeding colony at the Animal Resource Centre at BC Cancer Research Facility. Mice were always divided into baseline and AT1R blocked groups to assess the AT1R binding specificity of [^18F]AMBF3Los with the co-injection of the AT1R blocker losartan (18 mg/kg, dissolved in PBS).
as §3
After the sixty-minute dynamic PET scans, anesthetized mice were euthanized by carbon dioxide asphyxiation and blood, fat, testis, intestines, stomach, spleen, liver, pancreas, adrenal glands, kidneys, lungs, heart, muscle, bone and brain were harvested, rinsed in PBS, weighted and counted in a Perkin Elmer (Waltham, MA, USA) Wizard2 2480 automatic gamma counter to quantify the percent of injected dose per gram of tissue (% ID/g).

[8] = AT1R Blocking (co-injection of losartan 18 mg/kg)

In the case of `CCCCc1nc(Cl)c(Cn2cc(CCCOc3cccnc3[18F])nn2)n1Cc1ccc(-c2ccccc2-c2nnn[nH]2)cc1` [[^18F]FPyKYNE-losartan], the liver uptake [1] is given as 66.7 % ID/g and the Kd (rat kidney AT1R) is given as 49.4 nM.

For `CCCCc1nc(Cl)c(CO)n1Cc1ccc(-c2ccccc2-c2nn[nH]n2)cc1` [Losartan potassium, 2-butyl-4-chloro-5-hydroxymethyl-1-[(2′-(1H-tetrazol-5-yl)biphenyl-4-yl)methyl]-1H-imidazole], the “log D7.4” value [2] is given as 1.7.

Work on `CCCCc1nc(Cl)c(Cn2cc(C[N+](C)(C)C[B-](F)(F)F)nn2)n1Cc1ccc(-c2ccccc2-c2nnn[nH]2)cc1` [AMBF3Los, 2-butyl-4-chloro-5-[((1H-1,2,3-triazol-4-yl)-(N,N-dimethyl-ammoniomethyl-trifluoroborate)methyl)methyl]-1-[(2′-(1H-tetrazol-5-yl)biphenyl-4-yl)methyl]-1H-imidazole] yielded a Ki (human AT1R) of 7.9 nM.

With `CCCCc1nc(Cl)c(COCC[18F])n1Cc1ccc(-c2ccccc2-c2nnn[nH]2)cc1` [[^18F]FEtLos, [^18F]fluoroethyl-losartan] the “kidney uptake in ex vivo µPET/CT, baseline versus co-injected losartan potassium” value (renal AT1R [3]) was “high uptake in the kidneys (baseline), which was blocked”, the logD ([4]; pH 7.4, octanol/PBS) was 0.21 ± 0.09 and the “AT1R-specific binding to CHO-AT1R cells (blocking with losartan potassium)” value (shortened to “AT1R-specific binding to CHO-AT1R cells”) (CHO-AT1R cells) was “did not show any specific AT1R binding”. For the same compound, the “AT1R-specific binding to CHO-AT1R cells” value (CHO-AT1R cells; listed as [18F]FEtLos) was “non-significant blocking effect”.

For `CCCCc1nc(Cl)c(Cn2cc(C[N+](C)(C)C[B-](F)(F)[18F])nn2)n1Cc1ccc(-c2ccccc2-c2nnn[nH]2)cc1` [[^18F]AMBF3Los, [^18F]ammoniomethyltrifluoroborate-losartan], the “log D7.4” value [4] was −0.43 ± 0.02 and −0.4, the “in vitro cellular uptake in CHO-AT1R cells compared to CHO cells” value (CHO-AT1R cells; 10 µCi per well) was “higher uptake” and the “AT1R-specific binding to CHO-AT1R cells” value (CHO-AT1R cells) was “receptor-specific”. The “renal cortex activity, times smaller in mouse blocked with losartan potassium versus unblocked” value (renal AT1R [5]) was “approximately 5 times”, the “renal cortex uptake in dynamic µPET with co-injected losartan potassium versus baseline” value (renal AT1R [6]) was “reduced” and the “Uptake, Adrenal glands” value [7, 8] was 0.11 ± 0.06 % ID/g. The “Uptake, Blood” value [7, 8] was 0.08 ± 0.08 % ID/g, the “Uptake, Bone” value [7, 8] was 0.11 ± 0.03 % ID/g and the “Uptake, Brain” value [7, 8] was 0.005 ± 0.004 % ID/g. The “Uptake, Fat” value [7, 8] was 0.008 ± 0.002 % ID/g, the “Uptake, Heart” value [7, 8] was 0.04 ± 0.03 % ID/g and the “Uptake, Intestines” value [7, 8] was 62 ± 3 % ID/g. For the same compound, the “Uptake, Kidneys” value [7, 8] was 1.9 ± 1.3 % ID/g, the “Uptake, Liver” value [7, 8] was 0.6 ± 0.3 % ID/g and the “Uptake, Lungs” value [7, 8] was 0.08 ± 0.04 % ID/g. For the same compound, the “Uptake, Muscle” value [7, 8] was 0.05 ± 0.04 % ID/g, the “Uptake, Pancreas” value [7, 8] was 0.07 ± 0.06 % ID/g and the “Uptake, Spleen” value [7, 8] was 0.08 ± 0.03 % ID/g. For the same compound, the “Uptake, Stomach” value [7, 8] was 2 ± 2 % ID/g, the “Uptake, Testis” value [7, 8] was 0.029 ± 0.008 % ID/g and the “Uptake, Adrenal glands” value ([7]; Baseline) was 0.1 ± 0.1 % ID/g. The “Uptake, Blood” value ([7]; Baseline) was 0.05 ± 0.03 % ID/g, the “Uptake, Bone” value ([7]; Baseline) was 0.11 ± 0.06 % ID/g and the “Uptake, Brain” value ([7]; Baseline) was 0.006 ± 0.005 % ID/g. For the same compound, the “Uptake, Fat” value ([7]; Baseline) was 0.011 ± 0.004 % ID/g, the “Uptake, Heart” value ([7]; Baseline) was 0.03 ± 0.01 % ID/g and the “Uptake, Intestines” value ([7]; Baseline) was 63 ± 9 % ID/g. The “Uptake, Kidneys” value ([7]; Baseline) was 3.5 ± 1.2 % ID/g, the “Uptake, Liver” value ([7]; Baseline) was 0.5 ± 0.5 % ID/g and the “Uptake, Lungs” value ([7]; Baseline) was 0.06 ± 0.03 % ID/g. For the same compound, the “Uptake, Muscle” value ([7]; Baseline) was 0.02 ± 0.01 % ID/g, the “Uptake, Pancreas” value ([7]; Baseline) was 0.05 ± 0.03 % ID/g and the “Uptake, Spleen” value ([7]; Baseline) was 0.2 ± 0.1 % ID/g. The “Uptake, Stomach” value ([7]; Baseline) was 0.06 ± 0.05 % ID/g and the “Uptake, Testis” value ([7]; Baseline) was 0.03 ± 0.01 % ID/g.

Compound `CCCCc1nc(Cl)c(COCCF)n1Cc1ccc(-c2ccccc2-c2nnn[nH]2)cc1` [FEtLos, 2-butyl-4-chloro-5-(2-fluoroethoxy)methyl-1-[(2′-(1H-tetrazol-5-yl)biphenyl-4-yl)methyl]-1H-imidazole] has a Ki (human AT1R) of 2200 ± 200 nM.
